Laboratory results reported in US10471050B2, “2-OXO-1,2-dihydropyridine-3,5-dicarboxamide compounds as bromodomain inhibitors” (GlaxoSmithKline Intellectual Property (No. 2) Limited, priority 2015, dated 2019).

What was measured:
BRD4 BD2 = target: T1, BRD4 BD2 (Homo sapiens, UniProt O60885, Y97A); assay: BRD4 BD2 TR-FRET competition assay; format: binding; conditions: single mutant tandem BRD4, read-out: pIC50 in the BRD4 BD2 assay (converted)
T1 construct: BRD4 (1-477) (Y97A) and (Y390A); made in house; host or cells: E. coli (pET15b vector)
Experimental: Bromodomain binding was assessed utilising a time resolved fluorescent resonance energy transfer (TR-FRET) competition assay. To enable this approach a known, high affinity, pan-BET interacting small molecule was labelled with Alexa Fluor® 647, which is a far-red-fluorescent dye (Reference Compound X). Reference Compound X acts as a reporter of bromodomain binding and is the acceptor fluorophore component of the TR-FRET pair. Europium chelate, conjugated to an anti-6*His antibody, was utilised as the donor fluorophore in the TR-FRET pair. […] A TR-FRET signal is generated when the donor and acceptor fluorophores are in close proximity, between 20-80 Å, which is enabled in this assay by binding of Reference Compound X to the bromodomain protein.
In order to generate a TR-FRET signal, donor fluorophore is excited by a laser at λ337 nm, which subsequently leads to emission at λ618 nm. If the acceptor fluorophore is in close proximity then energy transfer can occur, which leads to emission of Alexa Fluor® 647 at λ665 nm. In the presence of competitor compound, Reference Compound X can be displaced from binding to the bromodomain. If displacement occurs, the acceptor fluorophore is no longer in proximity to the donor fluorophore, which prevents fluorescent energy transfer and, subsequently, a loss of Alexa Fluor® 647 emission at λ665 nm.
The competition of the compounds of formula (I) with Reference Compound X for binding to the BET family (BRD2, BRD3, BRD4 and BRDT) was assessed using protein truncates spanning both bromodomain 1 (BD1) and bromodomain 2 (BD2). In order to monitor differential binding to either BD1 or BD2, single residue mutations of key tyrosines to alanine were made in the acetyl lysine binding pockets. To validate this approach, a double residue mutant tandem domain protein was produced for each of the BET family members. Utilising a Fluorescence Polarisation approach, binding affinities for each of the single and double mutants for Reference Compound X were determined.
Final purification was completed by Superdex 200 prep grade size exclusion column. Purified protein was stored at −80° C. in 20 mM HEPES pH 7.5 and 100 mM NaCl.
All assay components were dissolved in an assay buffer composing of 50 mM HEPES pH7.4, 50 mM NaCl, 5% Glycerol, 1 mM DTT and 1 mM CHAPS. Reference Compound X was diluted, in assay buffer containing 20 nM single mutant, tandem bromodomain protein, to a concentration equivalent to 2*Kd for this bromodomain. The solution containing bromodomain and Reference Compound X was added to dose response dilutions of test compound or DMSO vehicle (a maximum of 0.5% DMSO is used in this assay) in Greiner 384 well black low volume microtitre plates and subsequently incubated for 30 minutes at room temperature. An equal volume of 3 nM of anti-6*His Europium chelate was added to all wells, followed by a further 30 minute incubation at room temperature. TR-FRET was detected using a Perkin Elmer Multimode plate reader, by exciting the donor fluorophore at λ337 nm and subsequently, after a delay of 50 μsecs, measuring emission of the donor and acceptor fluorophores at λ615 nm and λ665 nm, respectively. In order to control these assays, 16 replicates each of uninhibited (DMSO vehicle) and inhibited (10*IC50 concentrations of Example 11 of WO 2011/054846A1) TR-FRET assays were included on every microtitre plate.
cA four parameter curve fit of the following form was then applied: y=a+((b−a)/(1+(10^x/10^c)^d)
Where ‘a’ is the minimum, ‘b’ is the Hill slope, ‘c’ is the pIC50 and ‘d’ is the maximum.

BRD4 BD2 over BRD4 BD1 = assay: Calculation of selectivity for BRD4 BD2 over BRD4 BD1 from the TR-FRET assays; format: binding, Human; conditions: 1 log unit = 10 fold, 2 log unit = 100 fold
Experimental: Bromodomain binding was assessed utilising a time resolved fluorescent resonance energy transfer (TR-FRET) competition assay. To enable this approach a known, high affinity, pan-BET interacting small molecule was labelled with Alexa Fluor® 647, which is a far-red-fluorescent dye (Reference Compound X). Reference Compound X acts as a reporter of bromodomain binding and is the acceptor fluorophore component of the TR-FRET pair. Europium chelate, conjugated to an anti-6*His antibody, was utilised as the donor fluorophore in the TR-FRET pair. The anti-6*His antibody binds selectively to a six Histidine purification epitope added to the amino-terminus of each of the BET tandem bromodomain protein constructs used in this study. […]
The competition of the compounds of formula (I) with Reference Compound X for binding to the BET family (BRD2, BRD3, BRD4 and BRDT) was assessed using protein truncates spanning both bromodomain 1 (BD1) and bromodomain 2 (BD2). […] Utilising a Fluorescence Polarisation approach, binding affinities for each of the single and double mutants for Reference Compound X were determined. […] In the TR-FRET competition assay, Reference Compound X is used at a concentration that is equivalent to the Kd for the non-mutated bromodomain, which ensures that no binding at the mutated bromodomain is detected. […]

CNC(=O)c1cc(C(=O)NCCCC(=O)O)cn(Cc2ccccc2)c1=O [Example 44, 4-(1-Benzyl-5-(methylcarbamoyl)-6-oxo-1,6-dihydropyridine-3-carboxamido)butanoic acid]
IC50 (BRD4 BD2): 100 to 1000 nM
selectivity for BRD4 BD2 over BRD4 BD1 (BRD4 BD2 pIC50 - BRD4 BD1 pIC50) (BRD4 BD2 over BRD4 BD1): < 1 log unit
